Assay results: EPA's ToxValDB 9.5

System: Rattus norvegicus
Conditions: oral, gavage
[1] = chronic, duration: 110 days, M, Sprague-Dawley, Reproductive: Decreased serum testosterone (44%)
[2] = developmental, duration: 47 days, M/F, Sprague-Dawley, Body Weight: Decreased body weight gain (20-30%) + Developmental: Decreases in pup body weight (only one litter had live pups) + Endocrine: …
[3] = short-term, duration: 14 days, M, Sprague-Dawley, Body Weight: 25% reduction in final body weight + Reproductive: Decreased serum testosterone (38%) and estradiol (~38%), and ultrastructural…
[4] = short-term, duration: 28 days, F, Sprague-Dawley, Endocrine: 40% reduced serum estradiol in pubertal females
[5] = subchronic, duration: 47 days, F, Sprague-Dawley, Hepatic: Single cell necrosis in females / hepatocellular hypertrophy in males and females at […] / bile duct proliferation at […] in …

O=C(O)C(F)(F)C(F)(F)C(F)(F)C(F)(F)C(F)(F)C(F)(F)C(F)(F)C(F)(F)C(F)(F)C(F)(F)C(F)(F)F [Perfluorododecanoic acid] gave an LOAEL (acute, duration: 1 days, M, Wistar, Body Weight: 44% decrease in body weight gain (measured 10-days post-exposure) + Neurological: Impaired performance on novel object …) of 50 mg/kg-day, an NOAEL (acute, duration: 1 days, M, Wistar, Neurological: No alterations in open field activity + Neurological: No alterations in tests of working memory or depressive behavior) of 50 mg/kg-day and an NOAEL (chronic, duration: 110 days, M, Sprague-Dawley) of 0.5 mg/kg-day. The LOAEL [1] was 0.2 mg/kg-day, the NOAEL [1] was 0.05 mg/kg-day and the LOAEL [2] was 2.5 mg/kg-day. The NOAEL [2] was 0.5 mg/kg-day, the LOAEL [3] was 5 mg/kg-day and the NOAEL [3] was 1 mg/kg-day. It also gave an NOAEL (short-term, duration: 14 days, M, Sprague-Dawley, Hepatic: 35% increase in total serum cholesterol at 10 mg/kg/day) of 10 mg/kg-day, an NOAEL (short-term, duration: 14 days, M, Sprague-Dawley, Hepatic: Increased liver weight, increased hepatic triglyceride and cholesterol levels at ?5 mg/kg/day / increased serum triglyceride …) of 10 mg/kg-day and an LOAEL [4] of 3 mg/kg-day. It also gave an NOAEL [4] of 1 mg/kg-day, an LOAEL (subchronic, duration: 47 days, F, Sprague-Dawley, Death: 58% mortality) of 2.5 mg/kg-day and an LOAEL [5] of 2.5 mg/kg-day. For the same compound, the NOAEL [5] was 0.5 mg/kg-day and the NOAEL (subchronic, duration: 47 days, M/F, Sprague-Dawley) was 2.5 mg/kg-day.
